According to the supplement of paper PMC11061612:

Experiments:
Carboplatin = compound: C1CC(C1)(C(=O)[O-])C(=O)[O-].N.N.[Pt+2] [Carboplatin]; conditions: max 10 µM
Method in brief: (§1)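 After 24 hours at 37°C and 5% CO2 in 1536-well plates holding 7.5 μl of DMEM/F12 or RPMI with 10% FBS, cancer cell lines were dosed for 72 hours, with final DMSO typically 0.2%. Viability came from CellTiter-Glo 2.0 luminescence, scaled between the means of blank wells and DMSO wells. A non-linear mixed effects model fitted a two-parameter logistic curve to each dose response to give the single-agent IC50.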

AZD5363 = compound: C1CN(CCC1(C(=O)N[C@@H](CCO)C2=CC=C(C=C2)Cl)N)C3=NC=NC4=C3C=CN4 [AZD5363]; conditions: max 10 µM
Method in brief: as §1

AZD1775 = compound: C=CCn1c(=O)c2cnc(Nc3ccc(N4CCN(C)CC4)cc3)nc2n1-c1cccc(C(C)(C)O)n1 [AZD1775]; conditions: max 3 µM
Method in brief: as §1

Trametinib = compound: CC(=O)Nc1cccc(-n2c(=O)n(C3CC3)c(=O)c3c(Nc4ccc(I)cc4F)n(C)c(=O)c(C)c32)c1 [Trametinib]; conditions: max 1 µM
Method in brief: as §1

Paclitaxel = compound: CC(=O)O[C@H]1C(=O)[C@@]2(C)[C@H]([C@H](OC(=O)c3ccccc3)[C@]3(O)C[C@H](OC(=O)[C@H](O)[C@@H](NC(=O)c4ccccc4)c4ccccc4)C(C)=C1C3(C)C)[C@]1(OC(C)=O)CO[C@@H]1C[C@@H]2O [Paclitaxel]; conditions: max 3 µM
Method in brief: as §1

Palbociclib = compound: CC(=O)c1c(C)c2cnc(Nc3ccc(N4CCNCC4)cn3)nc2n(C2CCCC2)c1=O [Palbociclib]; conditions: max 10 µM
Method in brief: as §1

AZD1390 = compound: CC(C)n1c(=O)n(C)c2cnc3cc(F)c(-c4ccc(OCCCN5CCCCC5)nc4)cc3c21 [AZD1390]; conditions: max 0.3 µM
Method in brief: as §1

Venetoclax = compound: CC1(C)CCC(CN2CCN(c3ccc(C(=O)NS(=O)(=O)c4ccc(NCC5CCOCC5)c([N+](=O)[O-])c4)c(Oc4cnc5[nH]ccc5c4)c3)CC2)=C(c2ccc(Cl)cc2)C1 [Venetoclax]; conditions: max 1 µM
Method in brief: as §1

Dasatinib = compound: CC1=C(C(=CC=C1)Cl)NC(=O)C2=CN=C(S2)NC3=CC(=NC(=N3)C)N4CCN(CC4)CCO [Dasatinib]; conditions: max 2 µM
Method in brief: as §1

SG3199 = compound: CC1=CN2[C@@H](C1)C=NC3=CC(=C(C=C3C2=O)OC)OCCCCCOC4=C(C=C5C(=C4)N=C[C@@H]6CC(=CN6C5=O)C)OC [SG3199]; conditions: max 0.001 µM
Method in brief: as §1

AZD2811 = compound: CCN(CCO)CCCOc1ccc2c(Nc3cc(CC(=O)Nc4cccc(F)c4)[nH]n3)ncnc2c1 [AZD2811]; conditions: max 1 µM
Method in brief: as §1

SN-38 = compound: CCc1c2c(nc3ccc(O)cc13)-c1cc3c(c(=O)n1C2)COC(=O)[C@]3(O)CC [SN-38]; conditions: max 0.3 µM
Method in brief: as §1

AZD0156 = compound: CN(C)CCCOc1ccc(-c2ccc3ncc4c(c3c2)n(C2CCOCC2)c(=O)n4C)cn1 [AZD0156]; conditions: max 3 µM
Method in brief: as §1

AZD4320 = compound: CN(CC[C@H](CSC1=CC=CC=C1)NC2=C(C=C(C=C2)S(=O)(=O)NC(=O)C3=CC=C(C=C3)N4CCC(CC4)[C@H](C5=CC=CC=C5C6=CC=C(C=C6)Cl)O)S(=O)(=O)C(F)(F)F)CCO [AZD4320]; conditions: max 1 µM
Method in brief: as §1

Alisertib = compound: COc1cc(Nc2ncc3c(n2)-c2ccc(Cl)cc2C(c2c(F)cccc2OC)=NC3)ccc1C(=O)O [Alisertib]; conditions: max 10 µM
Method in brief: as §1

Etoposide = compound: COc1cc([C@@H]2c3cc4c(cc3[C@@H](O[C@@H]3O[C@@H]5CO[C@@H](C)O[C@H]5[C@H](O)[C@H]3O)[C@H]3COC(=O)[C@H]23)OCO4)cc(OC)c1O [Etoposide]; conditions: max 10 µM
Method in brief: as §1

Gefitinib = compound: COc1cc2ncnc(Nc3ccc(F)c(Cl)c3)c2cc1OCCCN1CCOCC1 [Gefitinib]; conditions: max 10 µM
Method in brief: as §1

Prexasertib = compound: COc1cccc(OCCCN)c1-c1cc(Nc2cnc(C#N)cn2)n[nH]1 [Prexasertib]; conditions: max 1 µM
Method in brief: as §1

Doxorubicin = compound: COc1cccc2c1C(=O)c1c(O)c3c(c(O)c1C2=O)C[C@@](O)(C(=O)CO)C[C@@H]3O[C@H]1C[C@H](N)[C@H](O)[C@H](C)O1 [Doxorubicin]; conditions: max 1 µM
Method in brief: as §1

AZD5153 = compound: COc1nnc2ccc(N3CCC(c4ccc(OCCN5CCN(C)C(=O)[C@H]5C)cc4)CC3)nn12 [AZD5153]; conditions: max 1 µM
Method in brief: as §1

Lapatinib = compound: CS(=O)(=O)CCNCc1ccc(-c2ccc3ncnc(Nc4ccc(OCc5cccc(F)c5)c(Cl)c4)c3c2)o1 [Lapatinib]; conditions: max 10 µM
Method in brief: as §1

AZD8186 = compound: C[C@@H](Nc1cc(F)cc(F)c1)c1cc(C(=O)N(C)C)cc2c(=O)cc(N3CCOCC3)oc12 [AZD8186]; conditions: max 10 µM
Method in brief: as §1

Crizotinib = compound: C[C@@H](Oc1cc(-c2cnn(C3CCNCC3)c2)cnc1N)c1c(Cl)ccc(F)c1Cl [Crizotinib]; conditions: max 10 µM
Method in brief: as §1

Savolitinib = compound: C[C@@H](c1ccc2nccn2c1)n1nnc2ncc(-c3cnn(C)c3)nc21 [Savolitinib]; conditions: max 1 µM
Method in brief: as §1

AZD6738 = compound: C[C@@H]1COCCN1C2=NC(=NC(=C2)C3(CC3)[S@](=N)(=O)C)C4=C5C=CNC5=NC=C4 [AZD6738]; conditions: max 10 µM
Method in brief: as §1

AZD5991 = compound: Cc1c2c(nn1C)CSCc1cc(n(C)n1)CSc1cc(c3ccccc3c1)OCCCc1c(C(=O)O)n(C)c3c-2c(Cl)ccc13 [AZD5991]; conditions: max 1 µM
Method in brief: as §1

AZD7648 = compound: Cc1cc2ncnn2cc1Nc1ncc2c(n1)n(C1CCOCC1)c(=O)n2C [AZD7648]; conditions: max 10 µM
Method in brief: as §1

Taselisib = compound: Cc1nc(-c2cn3c(n2)-c2ccc(-c4cnn(C(C)(C)C(N)=O)c4)cc2OCC3)n(C(C)C)n1 [Taselisib]; conditions: max 10 µM
Method in brief: as §1

Selumetinib = compound: Cn1cnc2c(F)c(Nc3ccc(Br)cc3Cl)c(C(=O)NOCCO)cc21 [Selumetinib]; conditions: max 10 µM
Method in brief: as §1

SRA737 = compound: N#Cc1cnc(Nc2cc(NC[C@H]3CNCCO3)c(C(F)(F)F)cn2)cn1 [SRA737]; conditions: max 10 µM
Method in brief: as §1

MK-2206 = compound: NC1(c2ccc(-c3nc4ccn5c(=O)[nH]nc5c4cc3-c3ccccc3)cc2)CCC1 [MK-2206]; conditions: max 10 µM
Method in brief: as §1

Gemcitabine = compound: Nc1ccn([C@@H]2O[C@H](CO)[C@@H](O)C2(F)F)c(=O)n1 [Gemcitabine]; conditions: max 0.3 µM
Method in brief: as §1

[1] = compound: O=C(Nc1ccc2[nH]nc(-c3ccncc3)c2c1)[C@@H]1CCN(CC(=O)N2CCN(c3ccc(-c4ncccn4)cc3)CC2)C1; conditions: max 5 µM
Method in brief: as §1

Olaparib = compound: O=C(c1cc(Cc2n[nH]c(=O)c3ccccc23)ccc1F)N1CCN(C(=O)C2CC2)CC1 [Olaparib]; conditions: max 10 µM
Method in brief: as §1

5-Fluorouracil = compound: O=c1[nH]cc(F)c(=O)[nH]1 [5-Fluorouracil]; conditions: max 20 µM
Method in brief: as §1

Row | Cell Line | IC50, cell viability 72 h (Carboplatin) [µM] | IC50, cell viability 72 h (AZD5363) [µM] | IC50, cell viability 72 h (AZD1775) [µM] | IC50, cell viability 72 h (Trametinib) [µM] | IC50, cell viability 72 h (Paclitaxel) [µM] | IC50, cell viability 72 h (Palbociclib) [µM] | IC50, cell viability 72 h (AZD1390) [µM] | IC50, cell viability 72 h (Venetoclax) [µM] | IC50, cell viability 72 h (Dasatinib) [µM] | IC50, cell viability 72 h (SG3199) [µM] | IC50, cell viability 72 h (AZD2811) [µM] | IC50, cell viability 72 h (SN-38) [µM] | IC50, cell viability 72 h (AZD0156) [µM] | IC50, cell viability 72 h (AZD4320) [µM] | IC50, cell viability 72 h (Alisertib) [µM] | IC50, cell viability 72 h (Etoposide) [µM] | IC50, cell viability 72 h (Gefitinib) [µM] | IC50, cell viability 72 h (Prexasertib) [µM] | IC50, cell viability 72 h (Doxorubicin) [µM] | IC50, cell viability 72 h (AZD5153) [µM] | IC50, cell viability 72 h (Lapatinib) [µM] | IC50, cell viability 72 h (AZD8186) [µM] | IC50, cell viability 72 h (Crizotinib) [µM] | IC50, cell viability 72 h (Savolitinib) [µM] | IC50, cell viability 72 h (AZD6738) [µM] | IC50, cell viability 72 h (AZD5991) [µM] | IC50, cell viability 72 h (AZD7648) [µM] | IC50, cell viability 72 h (Taselisib) [µM] | IC50, cell viability 72 h (Selumetinib) [µM] | IC50, cell viability 72 h (SRA737) [µM] | IC50, cell viability 72 h (MK-2206) [µM] | IC50, cell viability 72 h (Gemcitabine) [µM] | IC50, cell viability 72 h [1] [µM] | IC50, cell viability 72 h (Olaparib) [µM] | IC50, cell viability 72 h (5-Fluorouracil) [µM]
1 | DND-41 (T-Lymphoblastic Leukemia) | > 10 | > 10 | 0.334 | > 1 | > 3 | > 10 | > 0.3 | 0.546 | > 2 | > 0.001 | > 1 | 0.00288 | > 3 | 0.0338 | > 10 | 0.763 | > 10 | 0.00675 | 0.424 | 0.595 | 7.51 | > 10 | 4.77 | > 1 | 1.5 | > 1 | > 10 | > 10 | > 10 | 1.09 | > 10 | 0.0954 | > 5 | > 10 | > 20
2 | ES1 (Ewing's Sarcoma) | > 10 | > 10 | 0.784 | > 1 | < 0.003 | 2.17 | > 0.3 | > 1 | > 2 | > 0.001 | 0.51 | 0.0031 | > 3 | > 1 | 2.37 | 0.335 | > 10 | 0.0135 | 0.101 | 0.604 | > 10 | 8.67 | 2.48 | > 1 | 1.73 | 0.435 | > 10 | 1.05 | > 10 | 2 | 3.97 | 0.00261 | > 5 | 4.47 | 9.22
